System: 565726-208-R1-J5-PDC complex spheroids, growth inhibition
Test: Anticancer human tumor 565726-208-R1-J5-PDC patient-derived pancreatic adenocarcinoma cell line growth inhibition [RAS]
Details: for IC50: curve of first compound; for viability, T/C: stronger effect = lower value
Outline: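 Multi-cell-type spheroids: tumor cells plus HUVEC endothelial cells and mesenchymal stem cells. RAS-pathway inhibitors were combined with targeted agents, each dosed in half-log steps down from clinical Cmax, or from 10 microM when Cmax was unknown.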

[1] = second compound 0.00316 µM, first compound 0.0316 µM
[2] = second compound 0.00316 µM, first compound 0.1 µM
[3] = second compound 0.00316 µM, first compound 0.316 µM
[4] = second compound 0.00316 µM, first compound 1 µM
[5] = second compound 0.01 µM, first compound 0.0316 µM
[6] = second compound 0.01 µM, first compound 0.1 µM
[7] = second compound 0.01 µM, first compound 0.316 µM
[8] = second compound 0.01 µM, first compound 1 µM
[9] = second compound 0.0316 µM, first compound 0.0316 µM
[10] = second compound 0.0316 µM, first compound 0.1 µM
[11] = second compound 0.0316 µM, first compound 0.316 µM
[12] = second compound 0.0316 µM, first compound 1 µM
[13] = second compound 0.1 µM, first compound 0.0316 µM
[14] = second compound 0.1 µM, first compound 0.1 µM
[15] = second compound 0.1 µM, first compound 0.316 µM
[16] = second compound 0.1 µM, first compound 1 µM
[17] = second compound 0.316 µM, first compound 0.0316 µM
[18] = second compound 0.316 µM, first compound 0.1 µM
[19] = second compound 0.316 µM, first compound 0.316 µM
[20] = second compound 0.316 µM, first compound 1 µM
[21] = second compound 1 µM, first compound 0.0316 µM
[22] = second compound 1 µM, first compound 0.1 µM
[23] = second compound 1 µM, first compound 0.316 µM
[24] = second compound 1 µM, first compound 1 µM
[25] = second compound 0.0316 µM, first compound 3.16 µM
[26] = second compound 0.0316 µM, first compound 10 µM
[27] = second compound 0.1 µM, first compound 3.16 µM
[28] = second compound 0.1 µM, first compound 10 µM
[29] = second compound 0.316 µM, first compound 3.16 µM
[30] = second compound 0.316 µM, first compound 10 µM
[31] = second compound 1 µM, first compound 3.16 µM
[32] = second compound 1 µM, first compound 10 µM
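Further: spheroids exposed to compounds for seven days before readout.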
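Wherever viability, T/C is given: 100% = DMSO vehicle control viability.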

O=C(c1ccc(F)c(F)c1Nc1ccc(I)cc1F)N1CC(O)([C@@H]2CCCCN2)C1 + C=CC(=O)N1CCN(c2nc(OCC3CCCN3C)nc3c(F)c(-c4nc(N)cc(C)c4C(F)(F)F)c(Cl)cc23)C(C)C1 was tested, and the IC50 (second compound 0.00316 µM) was 0.46 µM, the IC50 (second compound 0.01 µM) was 0.29 µM and the IC50 (second compound 0.0316 µM) was over 1 µM. The IC50 (second compound 0.1 µM) was 0.365 µM, the IC50 (second compound 0.316 µM) was over 1 µM and the IC50 (second compound 1 µM) was 0.759 µM. For the same compound, the viability, T/C (second compound 0.00316 µM, first compound 0.00316 µM) was 105%, the viability, T/C (second compound 0.00316 µM, first compound 0.01 µM) was 142% and the viability, T/C [1] was 73.3%. The viability, T/C [2] was 78.3%, the viability, T/C [3] was 58.1% and the viability, T/C [4] was 39.1%. For the same compound, the viability, T/C (second compound 0.01 µM, first compound 0.00316 µM) was 120%, the viability, T/C (second compound 0.01 µM, first compound 0.01 µM) was 141% and the viability, T/C [5] was 88.3%. For the same compound, the viability, T/C [6] was 71.3%, the viability, T/C [7] was 56.6% and the viability, T/C [8] was 30.1%. The viability, T/C (second compound 0.0316 µM, first compound 0.00316 µM) was 146%, the viability, T/C (second compound 0.0316 µM, first compound 0.01 µM) was 174% and the viability, T/C [9] was 75.4%. It also gave a viability, T/C [10] of 82.4%, a viability, T/C [11] of 56.4% and a viability, T/C [12] of 38.1%. It also gave a viability, T/C (second compound 0.1 µM, first compound 0.00316 µM) of 138%, a viability, T/C (second compound 0.1 µM, first compound 0.01 µM) of 137% and a viability, T/C [13] of 91.1%. For the same compound, the viability, T/C [14] was 69.8%, the viability, T/C [15] was 60% and the viability, T/C [16] was 36.3%. The viability, T/C (second compound 0.316 µM, first compound 0.00316 µM) was 154%, the viability, T/C (second compound 0.316 µM, first compound 0.01 µM) was 139% and the viability, T/C [17] was 73.1%. For the same compound, the viability, T/C [18] was 71.3%, the viability, T/C [19] was 56.7% and the viability, T/C [20] was 38.9%. It also gave a viability, T/C (second compound 1 µM, first compound 0.00316 µM) of 137%, a viability, T/C (second compound 1 µM, first compound 0.01 µM) of 137% and a viability, T/C [21] of 82.2%. The viability, T/C [22] was 85.9%, the viability, T/C [23] was 61.2% and the viability, T/C [24] was 50.3%.

For CC(Nc1ccc2c(c1)OCCn1cc(N3C(=O)OCC3C(F)F)nc1-2)C(N)=O (stereo unspecified) + C=CC(=O)N1CCN(c2nc(OCC3CCCN3C)nc3c(F)c(-c4nc(N)cc(C)c4C(F)(F)F)c(Cl)cc23)C(C)C1, the IC50 (second compound 0.00316 µM) was over 10 µM, the IC50 (second compound 0.01 µM) was over 10 µM and the IC50 (second compound 0.0316 µM) was over 10 µM. For the same compound, the IC50 (second compound 0.1 µM) was over 10 µM, the IC50 (second compound 0.316 µM) was over 10 µM and the IC50 (second compound 1 µM) was over 10 µM. For the same compound, the viability, T/C [1] was 87.9%, the viability, T/C [2] was 124% and the viability, T/C [3] was 93.7%. For the same compound, the viability, T/C [4] was 67.5%, the viability, T/C (second compound 0.00316 µM, first compound 3.16 µM) was 92.8% and the viability, T/C (second compound 0.00316 µM, first compound 10 µM) was 86.4%. For the same compound, the viability, T/C [5] was 95.4%, the viability, T/C [6] was 139% and the viability, T/C [7] was 79.8%. It also gave a viability, T/C [8] of 66%, a viability, T/C (second compound 0.01 µM, first compound 3.16 µM) of 100% and a viability, T/C (second compound 0.01 µM, first compound 10 µM) of 89%. It also gave a viability, T/C [9] of 121%, a viability, T/C [10] of 128% and a viability, T/C [11] of 78.6%. For the same compound, the viability, T/C [12] was 67.9%, the viability, T/C [25] was 104% and the viability, T/C [26] was 96.2%. The viability, T/C [13] was 149%, the viability, T/C [14] was 130% and the viability, T/C [15] was 69.4%. The viability, T/C [16] was 66.8%, the viability, T/C [27] was 62.7% and the viability, T/C [28] was 85.1%. The viability, T/C [17] was 141%, the viability, T/C [18] was 139% and the viability, T/C [19] was 86.3%. For the same compound, the viability, T/C [20] was 79.8%, the viability, T/C [29] was 66.3% and the viability, T/C [30] was 102%. It also gave a viability, T/C [21] of 126%, a viability, T/C [22] of 147% and a viability, T/C [23] of 90.2%. For the same compound, the viability, T/C [24] was 64.9%, the viability, T/C [31] was 85.3% and the viability, T/C [32] was 89.8%.

Compound C[C@@H](NC(=O)c1ncnc(N)c1Cl)c1ncc(C(=O)Nc2cc(C(F)(F)F)c(Cl)cn2)s1 + C#Cc1c(F)ccc2cc(O)cc(-c3ncc4c(N5CC6CCC(C5)N6)nc(OCC56CCCN5CC(F)C6)nc4c3F)c12 has an IC50 (second compound 0.0316 µM) of over 10 µM, an IC50 (second compound 0.1 µM) of over 10 µM and an IC50 (second compound 0.316 µM) of over 10 µM. It also gave an IC50 (second compound 1 µM) of over 10 µM, an IC50 (second compound 3.16 µM) of over 10 µM and an IC50 (second compound 10 µM) of over 10 µM. The viability, T/C [9] was 114%, the viability, T/C [10] was 167% and the viability, T/C [11] was 121%. For the same compound, the viability, T/C [12] was 102%, the viability, T/C [25] was 135% and the viability, T/C [26] was 129%. The viability, T/C [13] was 122%, the viability, T/C [14] was 166% and the viability, T/C [15] was 107%. It also gave a viability, T/C [16] of 108%, a viability, T/C [27] of 116% and a viability, T/C [28] of 127%. The viability, T/C [17] was 150%, the viability, T/C [18] was 147% and the viability, T/C [19] was 94.9%. It also gave a viability, T/C [20] of 110%, a viability, T/C [29] of 95.8% and a viability, T/C [30] of 112%. It also gave a viability, T/C [21] of 134%, a viability, T/C [22] of 135% and a viability, T/C [23] of 92.8%. For the same compound, the viability, T/C [24] was 89.6%, the viability, T/C [31] was 107% and the viability, T/C [32] was 105%. The viability, T/C (second compound 3.16 µM, first compound 0.0316 µM) was 110%, the viability, T/C (second compound 3.16 µM, first compound 0.1 µM) was 123% and the viability, T/C (second compound 3.16 µM, first compound 0.316 µM) was 72.8%. It also gave a viability, T/C (second compound 3.16 µM, first compound 1 µM) of 68.3%, a viability, T/C (second compound 3.16 µM, first compound 3.16 µM) of 65.4% and a viability, T/C (second compound 3.16 µM, first compound 10 µM) of 102%. For the same compound, the viability, T/C (second compound 10 µM, first compound 0.0316 µM) was 100%, the viability, T/C (second compound 10 µM, first compound 0.1 µM) was 102% and the viability, T/C (second compound 10 µM, first compound 0.316 µM) was 68.4%. It also gave a viability, T/C (second compound 10 µM, first compound 1 µM) of 64.8%, a viability, T/C (second compound 10 µM, first compound 3.16 µM) of 72.2% and a viability, T/C (second compound 10 µM, first compound 10 µM) of 72.8%.

— PubChem BioAssay AID2060899 (Molecular Pharmacology Branch, DTP, NCI, 2025)
